This is an account of results in patent US8865750B2, “Small molecule inhibitors of RGS proteins” (The Regents of The University of Michigan, priority 2011, dated 2014).

Read-outs that look alike come from different tables or passages of the source.

For one test, the target named is RGS8 (Homo sapiens (Human), UniProt P57771). As to the kind of experiment: FCPIA: Gαo binding to RGS8. Conditions: read-out: RGS8 IC50. The text has this: (§1) FCPIA Dose Response and Reversibility Experiments:
A further test addresses RGS4. As to the kind of experiment: FCPIA: Gαo binding to RGS4. Conditions: for IC50: read-out: RGS4 IC50; for activity at RGS4: FCPIA.
From the text: as §1

Setting [1] is: Table 2, mean of two independent FCPIA experiments.

By IC50 is commonly meant the concentration that gives 50% inhibition.

RGS8, sequence (P57771 other isoform, or with tags, fused parts or gaps): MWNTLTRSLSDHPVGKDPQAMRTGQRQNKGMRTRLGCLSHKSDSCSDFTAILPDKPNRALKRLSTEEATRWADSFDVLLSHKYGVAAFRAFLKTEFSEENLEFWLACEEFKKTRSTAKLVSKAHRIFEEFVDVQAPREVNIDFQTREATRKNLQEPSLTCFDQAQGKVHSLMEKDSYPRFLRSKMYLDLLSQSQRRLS

For the molecule `COc1ccc(Cn2c(=O)sn(-c3ccc(C)cc3)c2=O)cc1` [CCG-203754, 2-p-tolyl-4-(4-methoxybenzyl)-1,2,4-thiadiazolidine-3,5-dione], the IC50 on RGS8 (Table 6, FCPIA) turned out to be 312 µM.

Turning to `CCn1sc(=O)n(C)c1=O` [CCG-203758, 2-ethyl-4-methyl-1,2,4-thiadiazolidine-3,5-dione], the IC50 at RGS4 (Table 6, FCPIA) worked out at 0.0223 µM; on RGS8 (Table 6, FCPIA), 37 µM.

For `CCn1sc(=O)n(Cc2ccc(F)cc2)c1=O` [CCG-203766, 2-ethyl-4-(4-fluorobenzyl)-1,2,4-thiadiazolidine-3,5-dione], the IC50 is 0.0223 µM at RGS4 (Table 6, FCPIA) and 18.7 µM on RGS8 (Table 6, FCPIA).

For `Cc1ccc(CN2C(=O)CN(c3ccc(C)cc3)C2=O)cc1` [CCG-203778], the IC50 on RGS4 (setting [1]) and at RGS8 (setting [1]) was greater than 100 µM throughout.

For the molecule `Cc1ccc(C2=CC(=O)N(Cc3ccccc3)C2=O)cc1` [CCG-203779], on RGS4 (setting [1]), the IC50 was determined as 93 µM.

Consider `Cc1ccc(-n2sc(=O)n(Cc3cccc(C)c3)c2=O)cc1` [CCG-203782, 2-(4-methylphenyl)-4-(3-methylbenzyl)-1,2,4-thiadiazolidine-3,5-dione], for which the IC50 came to 0.0145 µM at RGS4 (Table 6, FCPIA) and 9.9 µM at RGS8 (Table 6, FCPIA).

Regarding `CC(C)(C)c1ccc(-n2sc(=O)n(Cc3ccc(F)cc3)c2=O)cc1` [S1, 2-(4-t-butylphenyl)-4-(4-fluorobenzyl)-1,2,4-thiadiazolidine-3,5-dione], the IC50 on RGS8 (Table 6, FCPIA) was 50.4 µM.

On to `O=c1sn(-c2ccccc2)c(=O)n1Cc1ccc(Cl)cc1` [S4, 2-phenyl-4-(4-chlorobenzyl)-1,2,4-thiadiazolidine-3,5-dione], for which the IC50 on RGS8 (Table 6, FCPIA) was found to be 7.5 µM.

Turning to `O=c1sn(-c2ccc(Cl)c(Cl)c2)c(=O)n1Cc1ccc(Cl)cc1` [S7, 2-(3,4-dichlorophenyl)-4-(4-chlorobenzyl)-1,2,4-thiadiazolidine-3,5-dione], the IC50 at RGS8 (Table 6, FCPIA) is 43.2 µM.

`COc1ccc(-n2sc(=O)n(Cc3ccc(C)cc3)c2=O)cc1` [S11, 2-(4-methoxyphenyl)-4-(4-methylbenzyl)-1,2,4-thiadiazolidine-3,5-dione]: the IC50 on RGS8 (Table 6, FCPIA) is 6.6 µM.

Take `CC(C)(C)c1ccc(-n2sc(=O)n(Cc3cccc(Cl)c3)c2=O)cc1` [S15, 2-(4-t-butylphenyl)-4-(3-chlorobenzyl)-1,2,4-thiadiazolidine-3,5-dione]: at RGS8 (Table 6, FCPIA), the IC50 turned out to be 32.2 µM.

With `O=c1sn(-c2cccc(C(F)(F)F)c2)c(=O)n1Cc1cccc(Cl)c1` [S18, 2-(3-trifluoromethylphenyl)-4-(3-chlorobenzyl)-1,2,4-thiadiazolidine-3,5-dione], the IC50 at RGS8 (Table 6, FCPIA) was found to be 16.2 µM.

Take `Cc1cccc(Cn2c(=O)sn(-c3ccc(C(C)(C)C)cc3)c2=O)c1` [S20, 2-(4-t-butylphenyl)-4-(3-methylbenzyl)-1,2,4-thiadiazolidine-3,5-dione]: on RGS8 (Table 6, FCPIA), the IC50 was found to be 17.8 µM.

Consider `Cc1cccc(Cn2c(=O)sn(-c3cccc(Cl)c3)c2=O)c1` [S22, 2-(3-chlorophenyl)-4-(3-methylbenzyl)-1,2,4-thiadiazolidine-3,5-dione], for which the 50% inhibitory concentration (IC50) on RGS8 (Table 6, FCPIA) amounted to 31 µM.

Turning to `Cc1ccc(Cn2c(=O)sn(-c3ccc(Cl)c(Cl)c3)c2=O)cc1` [S!2, 2-(3,4-dichlorophenyl)-4-(4-methylbenzyl)-1,2,4-thiadiazolidine-3,5-dione], the IC50 on RGS8 (Table 6, FCPIA) was determined as 175 µM.

Consider `Cc1ccc(CN2C(=O)CN(c3ccc(C)cc3)C2=O)cc1` [compound 14, 3-(4-methylbenzyl)-1-p-tolylimidazolidine-2,4-dione], for which the “activity at RGS4” value with RGS4 was “Neither 14 or 15 displayed activity at RGS4”. Also, the half-inhibitory concentration (IC50) is greater than 100 µM on RGS4 (Table 6, FCPIA) and greater than 100 µM on RGS8 (Table 6, FCPIA).

As for `Cc1ccc(C2=CC(=O)N(Cc3ccccc3)C2=O)cc1` [compound 15, 1-benzyl-3-p-tolyl-1H-pyrrole-2,5-dione], the “activity at RGS4” value with RGS4 is “Neither 14 or 15 displayed activity at RGS4”.
